These are literature values, as cited in PubChem BioAssay AID1259409 (Chemical Carcinogenesis Research Information System (CCRIS), 2018).

Several values for one entry are separate records, joined by “and”; a condition that tells them apart may be missing. Equal entries are not always repeated.

This data set relates to rodent chemically induced tumor inhibition, incidence and multiplicity. The data set can be described thus: CCRIS tumor inhibitor studies. Particulars: Dose [Inhibitor]: 0.

In the case of `CC(=O)O[C@]1(C(C)=O)CC[C@H]2[C@@H]3C[C@H](C)C4=CC(=O)CC[C@]4(C)[C@H]3CC[C@@]21C`, the “tumour outcome (control, treated, inhibition, significance)” value by setting is: (Carcinogen: 7,12-DIMETHYLBENZ[A]ANTHRACENE, 57-97-6, 30 MG (AS DEPO-PROVERA) ONCE 3 WK POST CARCINOGEN DOSE (STUDY DURATION: 85 D), Route [Inhibitor]: SUBCUTANEOUS, Species: RAT, Strain/Sex: SPRAGUE-DAWLEY/FEMALE, Target Tissue: Type of Lesion: MAMMARY GLAND: TUMOR, Dose [Carcinogen]: 20 MG IN 1 ML CORN OIL ONCE, Promoter: NONE USED) 63%, 49%, 22%, not calculated; (Carcinogen: 7,12-DIMETHYLBENZ[A]ANTHRACENE, 57-97-6, 30 MG (AS DEPO-PROVERA) ONCE 7 D PRIOR TO CARCINOGEN DOSE (STUDY DURATION: 92 D), Route [Inhibitor]: SUBCUTANEOUS, Species: RAT, Strain/Sex: SPRAGUE-DAWLEY/FEMALE, Target Tissue: Type of Lesion: MAMMARY GLAND: TUMOR, Dose [Carcinogen]: 20 MG IN 1 ML CORN OIL ONCE, Promoter: NONE USED) 63%, 28%, 56%, not calculated; (Carcinogen: 7,12-DIMETHYLBENZ[A]ANTHRACENE, 57-97-6, 30 MG (MICROSPHERES) ONCE 7 D PRIOR TO CARCINOGEN DOSE (STUDY DURATION: 92 D), Route [Inhibitor]: SUBCUTANEOUS, Species: RAT, Strain/Sex: SPRAGUE-DAWLEY/FEMALE, Target Tissue: Type of Lesion: MAMMARY GLAND: TUMOR, Dose [Carcinogen]: 20 MG IN 1 ML CORN OIL ONCE, Promoter: NONE USED) 63%, 7%, 89%, not calculated; (Carcinogen: 7,12-DIMETHYLBENZ[A]ANTHRACENE, 57-97-6, 100 MG (AS DEPO-PROVERA) ONCE 3 WK POST CARCINOGEN DOSE (STUDY DURATION: 85 WK), Route [Inhibitor]: SUBCUTANEOUS, Species: RAT, Strain/Sex: SPRAGUE-DAWLEY/FEMALE, Target Tissue: Type of Lesion: MAMMARY GLAND: TUMOR, Dose [Carcinogen]: 20 MG IN 1 ML CORN OIL ONCE, Promoter: NONE USED) 63%, 29%, 54%, not calculated; (Carcinogen: 7,12-DIMETHYLBENZ[A]ANTHRACENE, 57-97-6, 100 MG (AS DEPO-PROVERA) ONCE 7 D PRIOR TO CARCINOGEN DOSE (STUDY DURATION: 92 D), Route [Inhibitor]: SUBCUTANEOUS, Species: RAT, Strain/Sex: SPRAGUE-DAWLEY/FEMALE, Target Tissue: Type of Lesion: MAMMARY GLAND: TUMOR, Dose [Carcinogen]: 20 MG IN 1 ML CORN OIL ONCE, Promoter: NONE USED) 63%, 23%, 63%, not calculated; (Carcinogen: 7,12-DIMETHYLBENZ[A]ANTHRACENE, 57-97-6, 100 MG (MICROSPHERES) ONCE 7 D PRIOR TO CARCINOGEN DOSE (STUDY DURATION: 92 D), Route [Inhibitor]: SUBCUTANEOUS, Species: RAT, Strain/Sex: SPRAGUE-DAWLEY/FEMALE, Target Tissue: Type of Lesion: MAMMARY GLAND: TUMOR, Dose [Carcinogen]: 20 MG IN 1 ML CORN OIL ONCE, Promoter: NONE USED) 63%, 6%, 90%, not calculated. Besides, the “tumour outcome (control, treated, inhibition, significance)” value is 18/28 (65%), 5/35 (17%), 74%, p<0.05 (Carcinogen: METHYLNITROSOUREA, 684-93-5, 40 MG DEPOT EVERY 2 MO (STUDY DURATION: 345 D), Route [Inhibitor]: SUBCUTANEOUS, Species: MOUSE, Strain/Sex: BALB/FEMALE, Target Tissue: Type of Lesion: HEMATOPOIETIC SYSTEM: LYMPHOMA, Dose [Carcinogen]: 50 MG/KG BW ONCE 15 D POST INHIBITOR REMOVAL, Promoter: NONE); 24/28 (86%), 28/31 (89%), -3%, not significant (Carcinogen: METHYLNITROSOUREA, 684-93-5, 40 MG DEPOT EVERY 2 MO (STUDY DURATION: 345 D), Route [Inhibitor]: SUBCUTANEOUS, Species: MOUSE, Strain/Sex: BALB/FEMALE, Target Tissue: Type of Lesion: LUNG: TUMOR, Dose [Carcinogen]: 50 MG/KG BW ONCE 15 D POST INHIBITOR REMOVAL, Promoter: NONE); 18/28 (65%), 7/35 (19%), 71%, p<0.05 (Carcinogen: METHYLNITROSOUREA, 684-93-5, 40 MG DEPOT EVERY 3 MO (STUDY DURATION: 277 D), Route [Inhibitor]: SUBCUTANEOUS, Species: MOUSE, Strain/Sex: BALB/FEMALE, Target Tissue: Type of Lesion: HEMATOPOIETIC SYSTEM: LYMPHOMA, Dose [Carcinogen]: 50 MG/KG BW ONCE 1 WK POST INHIBITOR FIRST DOSE, Promoter: NONE); 24/28 (86%), 31/35 (88%), -2%, not significant (Carcinogen: METHYLNITROSOUREA, 684-93-5, 40 MG DEPOT EVERY 3 MO (STUDY DURATION: 277 D), Route [Inhibitor]: SUBCUTANEOUS, Species: MOUSE, Strain/Sex: BALB/FEMALE, Target Tissue: Type of Lesion: LUNG: TUMOR, Dose [Carcinogen]: 50 MG/KG BW ONCE 1 WK POST INHIBITOR FIRST DOSE, Promoter: NONE); 18/28 (65%), 7/50 (15%), 77%, p<0.05 (Carcinogen: METHYLNITROSOUREA, 684-93-5, 40 MG DEPOT EVERY 3 MO BEGINNING 1 WK POST CARCINOGEN (STUDY DURATION: 9 MO), Route [Inhibitor]: SUBCUTANEOUS, Species: MOUSE, Strain/Sex: BALB/FEMALE, Target Tissue: Type of Lesion: HEMATOPOIETIC SYSTEM: LYMPHOMA, Dose [Carcinogen]: 50 MG/KG BW ONCE, Promoter: NONE); 24/28 (86%), 44/50 (89%), -3%, not significant (Carcinogen: METHYLNITROSOUREA, 684-93-5, 40 MG DEPOT EVERY 3 MO BEGINNING 1 WK POST CARCINOGEN (STUDY DURATION: 9 MO), Route [Inhibitor]: SUBCUTANEOUS, Species: MOUSE, Strain/Sex: BALB/FEMALE, Target Tissue: Type of Lesion: LUNG: TUMOR, Dose [Carcinogen]: 50 MG/KG BW ONCE, Promoter: NONE). Further, the “tumour outcome (control, treated, inhibition, significance)” value runs as follows: (Carcinogen: METHYLNITROSOUREA, 684-93-5, 40 MG DEPOT FOR 2 MO BEGINNING 1 WK POST CARCINOGEN (STUDY DURATION: 9 MO), Route [Inhibitor]: SUBCUTANEOUS, Species: MOUSE, Strain/Sex: BALB/FEMALE, Target Tissue: Type of Lesion: HEMATOPOIETIC SYSTEM: LYMPHOMA, Dose [Carcinogen]: 50 MG/KG BW ONCE, Promoter: NONE) 18/28 (65%), 7/27 (26%), 60%, p<0.05; (Carcinogen: METHYLNITROSOUREA, 684-93-5, 40 MG DEPOT FOR 2 MO BEGINNING 1 WK POST CARCINOGEN (STUDY DURATION: 9 MO), Route [Inhibitor]: SUBCUTANEOUS, Species: MOUSE, Strain/Sex: BALB/FEMALE, Target Tissue: Type of Lesion: LUNG: TUMOR, Dose [Carcinogen]: 50 MG/KG BW ONCE, Promoter: NONE) 24/28 (86%), 23/27 (85%), 0%, not significant.

Take `CC(C)=CCC/C(C)=C/COc1c2ccoc2cc2oc(=O)ccc12`: the “tumour outcome (control, treated, inhibition, significance)” value runs as follows: (Carcinogen: 7,12-DIMETHYLBENZ[A]ANTHRACENE, 57-97-6, 400 NMOL ONCE APPLIED 5 MIN PRIOR TO CARCINOGEN DOSE (STUDY DURATION: 25 WK), Route [Inhibitor]: DERMAL, Species: MOUSE, Strain/Sex: SENCAR, Target Tissue: Type of Lesion: SKIN: PAPILLOMA, Dose [Carcinogen]: 10 NMOL ONCE, Promoter: 12-O-TETRADECANOYLPHORBOL-13-ACETATE, 16561-29-8) 96%, 100%, -4%, not significant; (Carcinogen: 7-12-DIMETHYLBENZ[A]ANTHRACENE, 57-97-6, 800 NMOL ONCE APPLIED 5 MIN PRIOR TO CARCINOGEN DOSE (STUDY DURATION: 25 WK), Route [Inhibitor]: DERMAL, Species: MOUSE, Strain/Sex: SENCAR, Target Tissue: Type of Lesion: SKIN: PAPILLOMA, Dose [Carcinogen]: 10 NMOL ONCE, Promoter: 12-O-TETRADECANOYLPHORBOL-13-ACETATE, 16561-29-8) 96%, 100%, -4%, not significant and 93%, 96%, -3%, not significant; (Carcinogen: BENZO[A]PYRENE, 50-32-8, 20 NMOL ONCE APPLIED 5 MIN PRIOR TO CARCINOGEN DOSE (STUDY DURATION: 25 WK), Route [Inhibitor]: DERMAL, Species: MOUSE, Strain/Sex: SENCAR, Target Tissue: Type of Lesion: SKIN: PAPILLOMA, Dose [Carcinogen]: 200 NMOL ONCE, Promoter: 12-O-TETRADECANOYLPHORBOL-13-ACETATE, 16561-29-8) 91%, 100%, -10%, not significant; (Carcinogen: BENZO[A]PYRENE, 50-32-8, 100 NMOL ONCE APPLIED 5 MIN PRIOR TO CARCINOGEN DOSE (STUDY DURATION: 25 WK), Route [Inhibitor]: DERMAL, Species: MOUSE, Strain/Sex: SENCAR, Target Tissue: Type of Lesion: SKIN: PAPILLOMA, Dose [Carcinogen]: 200 NMOL ONCE, Promoter: 12-O-TETRADECANOYLPHORBOL-13-ACETATE, 16561-29-8) 91%, 87%, 4%, not significant; (Carcinogen: BENZO[A]PYRENE, 50-32-8, 400 NMOL ONCE APPLIED 5 MIN PRIOR TO CARCINOGEN DOSE (STUDY DURATION: 25 WK), Route [Inhibitor]: DERMAL, Species: MOUSE, Strain/Sex: SENCAR, Target Tissue: Type of Lesion: SKIN: PAPILLOMA, Dose [Carcinogen]: 200 NMOL ONCE, Promoter: 12-O-TETRADECANOYLPHORBOL-13-ACETATE, 16561-29-8) 91%, 92%, -1%, not significant; (Carcinogen: BENZO[A]PYRENE, 50-32-8, 800 NMOL ONCE APPLIED 5 MIN PRIOR TO CARCINOGEN DOSE (STUDY DURATION: 25 WK), Route [Inhibitor]: DERMAL, Species: MOUSE, Strain/Sex: SENCAR, Target Tissue: Type of Lesion: SKIN: PAPILLOMA, Dose [Carcinogen]: 200 NMOL ONCE, Promoter: 12-O-TETRADECANOYLPHORBOL-13-ACETATE, 16561-29-8) 91%, 82%, 10%, not significant.
